# Results reported in patent US20100279976A1, “USE OF ARTEMISININ AND ITS DERIVATIVES IN CANCER THERAPY” (SHANGHAI INSTITUTES FOR BIOLOGICAL SCIENCES, CAS, priority 2009, published 2010).
# Key:
# [1] = system: 7702 normal human liver cells; assay: MTT cell viability assay, normal liver cells; assay type: cell-based; details: Homo sapiens, 7702 cells, 48 h; for IC20: read-out: IC20 (concentration that reduces growth by 20%)
# Protocol: (§1) The effects of ART derivatives on the viability of the aforementioned cells may be determined using the MTT assay. Briefly, 2,000 cells per well were plated in triplicate in 96-well plates. After a 24-h incubation, the cells may be treated with varying concentrations of ART derivatives (0, 1, 5, 10, 25, 50, and 100 μmol/L) for 48 h. The MTT assay may be performed according to the manufacture's instruction and the resultant formazan crystals may be dissolved in DMSO (100 μL). The absorbance may be then recorded at 540 nm. The effects of ART derivatives on cell viability may be assessed by comparing the percent cell viability of the treated cells with the vehicle (DMSO)-treated control cells, which may be arbitrarily assigned at 100% viability. The experiment may be repeated thrice under the same conditions.
# [2] = system: HepG2 hepatoma cells (p53 wild-type); assay: MTT cell viability assay, HepG2; assay type: cell-based; details: Homo sapiens, 48 h
# Protocol: as §1
# [3] = system: Hep3B hepatoma cells (p53 null); assay: MTT cell viability assay, Hep3B; assay type: cell-based; details: Homo sapiens, 48 h
# Protocol: as §1
# [4] = system: Huh-7 hepatoma cells (p53 mutant); assay: MTT cell viability assay, Huh-7; assay type: cell-based; details: Homo sapiens, Huh-7 (p53 mutant), 48 h
# Protocol: as §1
# [5] = system: BEL-7404 hepatoma cells (p53 mutant); assay: MTT cell viability assay, BEL-7404; assay type: cell-based; details: Homo sapiens, BEL-7404 (p53 mutant), 48 h
# Protocol: as §1
# [6] = system: four hepatoma cell lines (HepG2, Hep3B, Huh-7, BEL-7404); assay: MTT assay, mean over four hepatoma cell lines; assay type: cell-based; details: Homo sapiens, mean of HepG2, Hep3B, read-out: overall mean IC50 in the four hepatoma cell lines
# Protocol: as §1
# [7] = system: A2780 ovarian carcinoma cells; assay: MTT cell viability assay, A2780; assay type: cell-based; details: Homo sapiens, A2780, 48 hrs
# Description: (§2) Human ovarian IOSE144 (immortalized non-tumorigenic human ovarian surface epithelial cells) and ovarian carcinoma (A2780 and OVCAR-3) cells that may be obtained from the American Type Culture Collection (ATCC, Manassas, Va.) are gifts from Dr. Jing Fang (Institute for Nutritional Sciences, Shanghai, China). All cells may be cultured according to the ATCC instructions. The compounds (ARS, ART, ARM and DHA) may be dissolved in DMSO (<0.1%, final concentration).
# as §1
# [8] = system: OVCAR-3 ovarian carcinoma cells; assay: MTT cell viability assay, OVCAR-3; assay type: cell-based; details: Homo sapiens, OVCAR-3, 48 hrs
# Description: as §2, §1
# [9] = system: IOSE144 immortalized non-tumorigenic ovarian surface epithelial cells; assay: MTT cell viability assay, IOSE144; assay type: cell-based; details: Homo sapiens, IOSE-144, IOSE144, 48 hrs
# Description: as §2, §1
# OVCAR-3 cells = assay: Annexin V-FITC apoptosis assay, OVCAR-3; assay type: cell-based, human; details: OVCAR-3, 24 hrs; DHA 1 μM, CBP 500 μM, alone or combined
# Protocol: ART- and DHA-induced apoptosis alone or in combination with gemcitabine in HepG2 and Hep3B cells or in combination with carboplatin in ovarian cancer cells may be determined by flow cytometry using the Annexin V-FITC Apoptosis Detection kit following the manufacturer's instructions. […] The cells may then be harvested, washed in PBS, and incubated with Annexin V and propidium iodide for staining in binding buffer at room temperature for 10 min in the dark. The stained cells may be analyzed using the FACSAria instrument.
# A2780 xenograft tumors = assay type: in vivo
# Protocol: Four to six week old female athymic nude mice (BALB/c, nu/nu) may be purchased from Shanghai Experimental Animal Center (Shanghai, China). Animal studies are approved by the Institute for Nutritional Sciences. The tumor xenograft model may be established as follows. […] Aliquots of cells (˜5×10^6 cells/0.2 ml) may be injected subcutaneously into the left inguinal area of the mice. The tumor growth and body weight of the mice may be monitored every other day. Tumor mass may be determined. Mice bearing palpable tumors (˜70 mg) may be randomly divided into treatment and control groups n=5 mice/group). CBP may be dissolved in saline, and DHA may be dissolved in cremophor EL:ethanol:saline (5:5:90, v/v/v). DHA may be administered via i.p. injection at doses of 10 and 25 mg/kg/5 days/week for 3 weeks) alone or combined with CBP (at a single dose of 120 mg/kg, once on day 0). The control group receives saline only. Mice may be killed on day 18. Tumors may be carefully excised, trimmed of extraneous fat or connective tissue, and homogenized in RIPA buffer (100 mg tumor tissue/1 ml RIPA) and prepared for immunoblotting analysis as described above.
# OVCAR-3 xenograft tumors = assay: OVCAR-3 xenograft model in nude mice; assay type: in vivo; details: CBP only, single dose 120 mg/kg on day 0
# Protocol: Four to six week old female athymic nude mice (BALB/c, nu/nu) may be purchased from Shanghai Experimental Animal Center (Shanghai, China). Animal studies are approved by the Institute for Nutritional Sciences. The tumor xenograft model may be established as follows. Briefly, A2780 and OVCAR-3 cells may be harvested and re-suspended in serum-free RPMI 1640 medium containing 20% (v/v) Matrigel (BD Biosciences, Bedford, Mass., USA). Aliquots of cells (˜5×10^6 cells/0.2 ml) may be injected subcutaneously into the left inguinal area of the mice. The tumor growth and body weight of the mice may be monitored every other day. Tumor mass may be determined. Mice bearing palpable tumors (˜70 mg) may be randomly divided into treatment and control groups n=5 mice/group). CBP may be dissolved in saline, and DHA may be dissolved in cremophor EL:ethanol:saline (5:5:90, v/v/v). DHA may be administered via i.p. injection at doses of 10 and 25 mg/kg/5 days/week for 3 weeks) alone or combined with CBP (at a single dose of 120 mg/kg, once on day 0). The control group receives saline only. Mice may be killed on day 18. Tumors may be carefully excised, trimmed of extraneous fat or connective tissue, and homogenized in RIPA buffer (100 mg tumor tissue/1 ml RIPA) and prepared for immunoblotting analysis as described above.
# HepG2 xenograft tumors = assay: HepG2 xenograft model in nude mice; assay type: in vivo; details: HepG2 xenograft, gemcitabine alone 80 mg/kg i.p. days 7, 11, 15
# Protocol: Female athymic nude mice (nu/nu; 4-6 wk of age) may be obtained from Shanghai Slac Laboratory Animal Co. Ltd. All animals may be fed with commercial diet and water ad libitum. The human HCC xenograft models in mice may be as follows. Briefly, HepG2 and Hep3B cells may be re-suspended in serum-free DMEM with Matrigel basement membrane matrix at a 5:1 ratio. The cell suspension may then be injected (7×10^6 cells; total volume, 0.2 mL) into the left inguinal area of the BALB/c nude mice. The animals may be monitored for activity and physical condition everyday, and the determination of body weight and measurement of tumor mass may be done every 3 d. Tumor mass may be determined by caliper measurement in two perpendicular diameters of the implant and calculated using the formula ½a×b^2, where a stands for the long diameter and b is the short diameter. The animal use and care protocol is approved by the Institutional Review Board of the Institute for Nutritional Sciences, Chinese Academy of Sciences.
# Nude mice bearing HepG2 and Hep3B xenografts, randomly divided into various treatment and control groups (five mice per group), may be treated orally with either ART or DHA suspended in 5% sesame oil+95% saline, at a dose of 50 or 100 mg/kg/d, or a combination of ART or DHA with gemcitabine or with saline (as controls). In the mice receiving combination therapy, 80 mg/kg gemcitabine, representing one fifth of the reported most tolerated dose in mice, may be administered i.p. on days 7, 11, and 15 to avoid possible side effects and to illustrate potential chemo-sensitization effects in this combination regimen.
# HCC = details: gemcitabine monotherapy, HCC patients; cited from earlier work
Compound,IC80 [1],IC20 [1],IC50 [1],IC20 [2],IC50 [2],IC80 [2],IC20 [3],IC50 [3],IC80 [3],IC20 [4],IC50 [4],IC80 [4],IC20 [5],IC50 [5],IC80 [5],IC50 [6],IC20 [7],IC50 [7],IC80 [7],IC20 [8],also measured
"CO[C@H]1O[C@@H]2O[C@@]3(C)CC[C@H]4[C@H](C)CC[C@@H]([C@H]1C)[C@@]24OO3 [ARM, artemether]",> 500 µM,7.9 µM,492 µM,2.6 µM,54.8 µM,> 500 µM,2.4 µM,51.5 µM,> 500 µM,1.2 µM,31.4 µM,> 500 µM,2.4 µM,31.8 µM,> 500 µM,42.3 µM,2.08 µM,53.9 µM,> 500 µM,2.08 µM,IC50 [8]: 38.8 µM; IC80 [8]: > 500 µM; IC20 [9]: 98 µM; IC50 [9]: > 500 µM; IC80 [9]: > 500 µM
"C[C@H]1[C@H](OC(=O)CCC(=O)O)O[C@@H]2O[C@@]3(C)CC[C@H]4[C@H](C)CC[C@@H]1[C@@]24OO3 [ARS, artesunate]",> 500 µM,7.3 µM,> 500 µM,1.3 µM,20.5 µM,338 µM,1.5 µM,39.4 µM,> 500 µM,0.6 µM,9.22 µM,146 µM,1 µM,15 µM,215 µM,21 µM,7.68 µM,> 500 µM,> 500 µM,3.93 µM,IC50 [8]: 343 µM; IC80 [8]: > 500 µM; IC20 [9]: > 500 µM; IC50 [9]: > 500 µM; IC80 [9]: > 500 µM
"N.N.O=C([O-])C1(C(=O)[O-])CCC1.[Pt+2] [CBP, carboplatin]",–,–,–,–,–,–,–,–,–,–,–,–,–,–,–,–,–,–,–,–,"rate of apoptosis (control regarded as 100%) (OVCAR-3 cells): 528%; tumor growth inhibition (A2780 xenograft tumors; A2780 xenograft, CBP only, single dose 120 mg/kg on day 0): 56%; host toxicity based on observation of body weight (A2780 xenograft tumors; mice bearing A2780 or OVCAR-3 xenografts): slight weight loss; tumor growth inhibition (OVCAR-3 xenograft tumors): 46%"
Nc1ccn([C@@H]2O[C@H](CO)[C@@H](O)C2(F)F)c(=O)n1 [gemcitabine],–,–,–,–,–,–,–,–,–,–,–,–,–,–,–,–,–,–,–,–,tumor growth inhibition (HepG2 xenograft tumors): 34.9%; median survival time (HCC): up to 34 weeks
